This passage reports ED50 results from ChEMBL document CHEMBL1146580, “Acinospesigenin-A, -B, and -C: three new triterpenoids from Phytolacca acinosa” (2003).

Structures are written as SMILES.

The test system of the test is Rattus norvegicus. Nature of the test: Antiedemic activity against […]-induced paw edema in sc dosed Albino rat. The test is classed as functional.
In the case of `COC(=O)[C@@]1(C)CC[C@]2(C(=O)O)CC[C@]3(C)C(=C[C@@H](O)[C@@H]4[C@@]5(C)C[C@H](O)[C@H](O)[C@@](C)(C=O)[C@@H]5CC[C@]43C)[C@H]2C1`, the 50% effect level (ED50) was put at a dose of 10 mg/kg. Turning to `COC(=O)[C@@]1(C)CC[C@]2(C(=O)O)CC[C@]3(C)C(=CC[C@@H]4[C@@]5(C)C[C@H](O)[C@H](O)[C@@](C)(C=O)[C@@H]5CC[C@]43C)[C@H]2C1`, the ED50 (in general, the dose that gives a 50% effect, or the effect in half of the subjects) came out at 10 mg/kg. The same measure for `C[C@]12CCC(=O)C=C1CC[C@@H]1[C@@H]2C(=O)C[C@@]2(C)[C@H]1CC[C@]2(O)C(=O)CO` [CORTISONE]: 30 mg/kg; for `C[C@]12C=CC(=O)C=C1CC[C@@H]1[C@@H]2[C@@H](O)C[C@@]2(C)[C@H]1CC[C@]2(O)C(=O)CO` [PREDNISOLONE]: 60 mg/kg.
